Assay results published in the NIST ThermoML archive (doi:10.1021/je800017j).

Test: xn = mol fraction of the nth substance listed
Conditions: Liquid, Vibrating tube method

C=CC [propene] + CC(C)O
Conditions	mass density [kg/m3]
300.11 K, 966.7 kPa, x1 = 0.5201	644.49
300.11 K, 1373.3 kPa, x1 = 0.5201	645.21
300.11 K, 1835.6 kPa, x1 = 0.5201	645.98
300.11 K, 2340.9 kPa, x1 = 0.5201	646.83
300.11 K, 2812.4 kPa, x1 = 0.5201	647.62
300.11 K, 3330.1 kPa, x1 = 0.5201	648.49
300.11 K, 3817.5 kPa, x1 = 0.5201	649.27
300.11 K, 4386.1 kPa, x1 = 0.5201	650.18
300.11 K, 4873.7 kPa, x1 = 0.5201	650.95
300.11 K, 5375.2 kPa, x1 = 0.5201	651.72
300.11 K, 5888.8 kPa, x1 = 0.5201	652.52
300.11 K, 6442 kPa, x1 = 0.5201	653.35
300.11 K, 6942.8 kPa, x1 = 0.5201	654.09
300.11 K, 7498.2 kPa, x1 = 0.5201	654.9
300.11 K, 8104.7 kPa, x1 = 0.5201	655.77
300.11 K, 8671.8 kPa, x1 = 0.5201	656.58
300.11 K, 9226.7 kPa, x1 = 0.5201	657.35
300.11 K, 9787 kPa, x1 = 0.5201	658.16
300.12 K, 1068.5 kPa, x1 = 0.6478	608.06
300.12 K, 1486.5 kPa, x1 = 0.6478	608.93
300.12 K, 1740.6 kPa, x1 = 0.6478	609.48
300.12 K, 2123.8 kPa, x1 = 0.6478	610.19
300.12 K, 2620 kPa, x1 = 0.6478	611.17
300.12 K, 2986.8 kPa, x1 = 0.6478	611.92
300.12 K, 3495.3 kPa, x1 = 0.6478	612.85
300.12 K, 3829 kPa, x1 = 0.6478	613.59
300.12 K, 4193.5 kPa, x1 = 0.6478	614.26
300.12 K, 4542.8 kPa, x1 = 0.6478	614.93
300.12 K, 4905.4 kPa, x1 = 0.6478	615.61
300.12 K, 5263.7 kPa, x1 = 0.6478	616.27
300.12 K, 5634.1 kPa, x1 = 0.6478	616.94
300.12 K, 6011.3 kPa, x1 = 0.6478	617.61
300.12 K, 6395.3 kPa, x1 = 0.6478	618.28
300.12 K, 6788.6 kPa, x1 = 0.6478	618.96
300.12 K, 7165.4 kPa, x1 = 0.6478	619.61
300.12 K, 7558.1 kPa, x1 = 0.6478	620.28
300.12 K, 7960.1 kPa, x1 = 0.6478	620.96
300.12 K, 8377.2 kPa, x1 = 0.6478	621.66
300.12 K, 8785.5 kPa, x1 = 0.6478	622.34
300.12 K, 9234.2 kPa, x1 = 0.6478	623.05
300.12 K, 9682.1 kPa, x1 = 0.6478	623.79
300.14 K, 529.4 kPa, x1 = 0.2011	731.63
300.14 K, 1051.3 kPa, x1 = 0.2011	732.17
300.14 K, 1483.6 kPa, x1 = 0.2011	732.72
300.14 K, 1954.4 kPa, x1 = 0.2011	733.24
300.14 K, 2384 kPa, x1 = 0.2011	733.72
300.14 K, 2798.6 kPa, x1 = 0.2011	734.18
300.14 K, 3273.1 kPa, x1 = 0.2011	734.68
300.14 K, 3740.2 kPa, x1 = 0.2011	735.18
300.14 K, 4186.3 kPa, x1 = 0.2011	735.68
300.14 K, 4728.6 kPa, x1 = 0.2011	736.23
300.14 K, 5235.6 kPa, x1 = 0.2011	736.78
300.14 K, 5767.3 kPa, x1 = 0.2011	737.3
300.14 K, 6274.7 kPa, x1 = 0.2011	737.83
300.14 K, 6832.5 kPa, x1 = 0.2011	738.41
300.14 K, 7291.5 kPa, x1 = 0.2011	738.89
300.14 K, 7811.8 kPa, x1 = 0.2011	739.42
300.14 K, 8296.6 kPa, x1 = 0.2011	739.9
300.14 K, 8810.3 kPa, x1 = 0.2011	740.41
300.14 K, 9337.7 kPa, x1 = 0.2011	740.91
300.14 K, 9886.4 kPa, x1 = 0.2011	741.45
325.05 K, 1613.1 kPa, x1 = 0.5201	613.41
325.05 K, 1977.7 kPa, x1 = 0.5201	614.26
325.05 K, 2359 kPa, x1 = 0.5201	615.15
325.05 K, 2717.2 kPa, x1 = 0.5201	615.98
325.05 K, 3167.8 kPa, x1 = 0.5201	616.93
325.05 K, 3506.1 kPa, x1 = 0.5201	617.74
325.05 K, 3888.8 kPa, x1 = 0.5201	618.59
325.05 K, 4321.6 kPa, x1 = 0.5201	619.52
325.05 K, 4676.7 kPa, x1 = 0.5201	620.29
325.05 K, 5061.4 kPa, x1 = 0.5201	621.12
325.05 K, 5471.8 kPa, x1 = 0.5201	621.94
325.05 K, 5880.1 kPa, x1 = 0.5201	622.78
325.05 K, 6293.6 kPa, x1 = 0.5201	623.65
325.05 K, 6704.3 kPa, x1 = 0.5201	624.42
325.05 K, 7171.7 kPa, x1 = 0.5201	625.34
325.05 K, 7597.4 kPa, x1 = 0.5201	626.18
325.05 K, 8037.5 kPa, x1 = 0.5201	627.02
325.05 K, 8556.5 kPa, x1 = 0.5201	628.02
325.05 K, 9078.1 kPa, x1 = 0.5201	628.97
325.05 K, 9631.3 kPa, x1 = 0.5201	629.98
325.09 K, 810.9 kPa, x1 = 0.2011	703.07
325.09 K, 1218.9 kPa, x1 = 0.2011	703.59
325.09 K, 1608.7 kPa, x1 = 0.2011	704.14
325.09 K, 2001.8 kPa, x1 = 0.2011	704.7
325.09 K, 2383.7 kPa, x1 = 0.2011	705.3
325.09 K, 2827.6 kPa, x1 = 0.2011	705.86
325.09 K, 3159.2 kPa, x1 = 0.2011	706.38
325.09 K, 3707.9 kPa, x1 = 0.2011	707.07
325.09 K, 4123.6 kPa, x1 = 0.2011	707.68
325.09 K, 4528.5 kPa, x1 = 0.2011	708.19
325.09 K, 4925.3 kPa, x1 = 0.2011	708.73

Conditions	mass density [kg/m3]
300.11 K, x1 = 0.5201	644.42
300.12 K, x1 = 0.6478	607.97
300.14 K, x1 = 0.2011	731.63
325.05 K, x1 = 0.5201	613.29
